Results on 21 compounds are retold here after US20240246964A1 (Arbutus Biopharma Corporation, priority 2021, published 2024).

As usually defined, the EC50 is the concentration giving half of the maximal effect. Low readings indicate greater potency, high ones weaker potency.

The target in this assay is human PD-L1 (Homo sapiens (Human), UniProt Q9NZQ7). As to the kind of experiment: T cell activation luciferase reporter cell culture system (T Cell Activation Assay). The assay is classed as cell-based. Particulars: luciferase reporter assay; PD-L1 aAPC/CHO-K1 cells with PD-1 effector Jurkat T cells. For orientation: In a reporter assay the amount or activity of a reporter protein is the signal.
Sequence of human PD-L1 (Q9NZQ7 19-290): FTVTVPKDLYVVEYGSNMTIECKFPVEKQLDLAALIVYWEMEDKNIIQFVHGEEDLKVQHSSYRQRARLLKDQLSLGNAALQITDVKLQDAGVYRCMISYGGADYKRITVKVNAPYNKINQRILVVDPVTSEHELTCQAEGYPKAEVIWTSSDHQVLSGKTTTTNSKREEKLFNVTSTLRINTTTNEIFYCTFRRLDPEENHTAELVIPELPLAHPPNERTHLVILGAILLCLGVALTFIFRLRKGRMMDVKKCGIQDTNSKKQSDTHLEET
`COc1cc(-c2nccc(-c3cccc(-c4ccc(CN[C@H]5CC[C@H](O)CC5)c(OC)n4)c3Cl)c2Cl)ccc1CN[C@H]1CC[C@H](O)CC1` [Example 364, (1r,4r)-4-(((6-(2-Chloro-3-(3-chloro-2-(4-((((1r,4r)-4-hydroxycyclohexyl)amino)methyl)-3-methoxyphenyl)pyridin-4-yl)phenyl)-2-methoxypyridin-3-yl)methyl)amino)cyclohexan-1-ol] had an EC50 of 28.5 nM. Then `COc1cc(-c2nccc(-c3cccc(-c4ccc(CNC5CC6(COC6)C5)c(OC)n4)c3Cl)c2Cl)ccc1CNC1CC2(COC2)C1` (stereo not drawn) [Example 365, N-(4-(4-(3-(5-(((2-Oxaspiro[3.3]heptan-6-yl)amino)methyl)-6-methoxypyridin-2-yl)-2-chlorophenyl)-3-chloropyridin-2-yl)-2-methoxybenzyl)-2-oxaspiro[3.3]heptan-6-amine], with 19.9 nM; and `COc1cc(-c2nccc(-c3cccc4c3CC[C@@H]4Nc3nc(OC)c(CN4CC5(CNC(=O)C5)C4)nc3C(F)(F)F)c2Cl)ccc1CN1CC2(CNC(=O)C2)C1` [Example 366, (S)-2-(4-(3-Chloro-4-(1-((6-methoxy-5-((7-oxo-2,6-diazaspiro[3.4]octan-2-yl)methyl)-3-(trifluoromethyl)pyrazin-2-yl)amino)-2,3-dihydro-1H-inden-4-yl)pyridin-2-yl)-2-methoxybenzyl)-2,6-diazaspiro[3.4]octan-7-one], with 159 nM. In the case of `COc1cc(-c2nccc(-c3cccc4c3CC[C@@H]4Nc3nc(OC)c(CN4CC5(C4)CN(C(C)=O)C5)nc3C(F)(F)F)c2Cl)ccc1CN1CC2(C1)CN(C(C)=O)C2` [Example 367, (S)-1-(6-((5-((4-(2-(4-((6-Acetyl-2,6-diazaspiro[3.3]heptan-2-yl)methyl)-3-methoxyphenyl)-3-chloropyridin-4-yl)-2,3-dihydro-1H-inden-1-yl)amino)-3-methoxy-6-(trifluoromethyl)pyrazin-2-yl)methyl)-2,6-diazaspiro[3.3]heptan-2-yl)ethan-1-one] it was 412 nM; in that of `COc1cc(-c2nccc(-c3cccc(-c4ccc(CN5CC6(CNC(=O)C6)C5)c(OC)n4)c3Cl)c2C)ccc1CN1CC2(CNC(=O)C2)C1` [Example 368, 2-((6-(2-Chloro-3-(2-(3-methoxy-4-((7-oxo-2,6-diazaspiro[3.4]octan-2-yl)methyl)phenyl)-3-methylpyridin-4-yl)phenyl)-2-methoxypyridin-3-yl)methyl)-2,6-diazaspiro[3.4]octan-7-one], 37.4 nM.

As to `COc1cc(-c2nccc(-c3cccc(-c4ccc(CN5CC6(C5)CN(C(C)=O)C6)c(OC)n4)c3Cl)c2C)ccc1CN1CC2(C1)CN(C(C)=O)C2` [Example 369, 1-(6-((6-(3-(2-(4-((6-Acetyl-2,6-diazaspiro[3.3]heptan-2-yl)methyl)-3-methoxyphenyl)-3-methylpyridin-4-yl)-2-chlorophenyl)-2-methoxypyridin-3-yl)methyl)-2,6-diazaspiro[3.3]heptan-2-yl)ethan-1-one], the EC50 stood at 369 nM. Then `COc1nc(-c2cccc(-c3ccnc(-c4cc(OC)c5nc(CN[C@H]6C[C@](C)(O)C6)nn5c4)c3Cl)c2Cl)ccc1CNC[C@@H]1CCC(=O)N1` [Example 370, (S)-5-((((6-(2-Chloro-3-(3-chloro-2-(2-((((1r,3r)-3-hydroxy-3-methylcyclobutyl)amino)methyl)-8-methoxy-[1,2,4]triazolo[1,5-a]pyridin-6-yl)pyridin-4-yl)phenyl)-2-methoxypyridin-3-yl)methyl)amino)methyl)pyrrolidin-2-one], with 41.2 nM; and `COc1cc(-c2nccc(-c3cccc(-c4ccc(CNC5CCN(C(C)=O)CC5)c(OC)n4)c3Cl)c2Cl)ccc1CNC1CCN(C(=O)C(C)C)CC1` [Example 371, 1-(4-((4-(4-(3-(5-(((1-acetylpiperidin-4-yl)amino)methyl)-6-methoxypyridin-2-yl)-2-chlorophenyl)-3-chloropyridin-2-yl)-2-methoxybenzyl)amino)piperidin-1-yl)-2-methylpropan-1-one], with 48.7 nM; and `COc1cc(-c2nccc(-c3cccc(-c4ccc(CNC5CCN(S(C)(=O)=O)CC5)c(OC)n4)c3Cl)c2Cl)ccc1CNC1CCN(S(C)(=O)=O)CC1` [Example 372, N-((6-(2-Chloro-3-(3-chloro-2-(3-methoxy-4-(((1-(methylsulfonyl)piperidin-4-yl)amino)methyl)phenyl)pyridin-4-yl)phenyl)-2-methoxypyridin-3-yl)methyl)-1-(methylsulfonyl)piperidin-4-amine], with 23.5 nM.

In turn, `COc1cc(-c2nccc(-c3cccc(-c4ccc(CNCCCCC(N)=O)c(OC)n4)c3Cl)c2Cl)ccc1CNCCCCC(N)=O` [Example 373, 5-(((6-(3-(2-(4-(((5-Amino-5-oxopentyl)amino)methyl)-3-methoxyphenyl)-3-chloropyridin-4-yl)-2-chlorophenyl)-2-methoxypyridin-3-yl)methyl)amino)pentanamide] displayed an EC50 of 152 nM. Then `COc1cc(-c2nccc(-c3cccc(-c4ccc(CN[C@@H]5CCN(C(C)=O)C5)c(OC)n4)c3Cl)c2Cl)ccc1CN[C@@H]1CCN(C(C)=O)C1` [Example 374, 1-((R)-3-(((6-(3-(2-(4-((((R)-1-Acetylpyrrolidin-3-yl)amino)methyl)-3-methoxyphenyl)-3-chloropyridin-4-yl)-2-chlorophenyl)-2-methoxypyridin-3-yl)methyl)amino)pyrrolidin-1-yl)ethan-1-one], with 44.6 nM; and `COc1nc(-c2cccc(-c3ccnc(-c4cnc5c(CN6CCC(NC(C)=O)CC6)cn(C)c5c4)c3Cl)c2Cl)ccc1CNC[C@@H]1CCC(=O)N1` [Example 377, (S)—N-(1-((6-(3-chloro-4-(2-chloro-3-(6-methoxy-5-((((5-oxopyrrolidin-2-yl)methyl)amino)methyl)pyridin-2-yl)phenyl)pyridin-2-yl)-1-methyl-1H-pyrrolo[3,2-b]pyridin-3-yl)methyl)piperidin-4-yl)acetamide], with 405 nM. Then `COc1nc(-c2cccc(-c3ccnc(-c4cnc5c(CN6CC7(CNC(=O)C7)C6)cn(C)c5c4)c3Cl)c2Cl)ccc1CNC[C@@H]1CCC(=O)N1` [Example 378, (S)-2-((6-(3-Chloro-4-(2-chloro-3-(6-methoxy-5-((((5-oxopyrrolidin-2-yl)methyl)amino)methyl)pyridin-2-yl)phenyl)pyridin-2-yl)-1-methyl-1H-pyrrolo[3,2-b]pyridin-3-yl)methyl)-2,6-diazaspiro[3.4]octan-7-one], with 73.8 nM. Then `COc1cc(-c2nccc(-c3cccc(-c4ccc(CNC5CCN(C(C)=O)CC5)c(OC)n4)c3Cl)c2Cl)ccc1CNC1CC2(COC2)C1` [Example 379, 1-(4-(((6-(3-(2-(4-(((2-Oxaspiro[3.3]heptan-6-yl)amino)methyl)-3-methoxyphenyl)-3-chloropyridin-4-yl)-2-chlorophenyl)-2-methoxypyridin-3-yl)methyl)amino)piperidin-1-yl)ethan-1-one], with 45.3 nM. The compound `COc1cc(-c2nccc(-c3cccc(-c4ccc(CNC5CCN(C(=O)C(C)C)CC5)c(OC)n4)c3Cl)c2Cl)ccc1CNC1CCN(C(C)=O)CC1` [Example 382, 1-(4-(((6-(3-(2-(4-(((1-acetylpiperidin-4-yl)amino)methyl)-3-methoxyphenyl)-3-chloropyridin-4-yl)-2-chlorophenyl)-2-methoxypyridin-3-yl)methyl)amino)piperidin-1-yl)-2-methylpropan-1-one] registered an EC50 of 15.3 nM. Then `COc1nc(-c2cccc(-c3ccnc(-c4cc(OC)c5nc(CN[C@H]6CC[C@H](O)CC6)cn5c4)c3Cl)c2Cl)ccc1CNC[C@@H]1CCC(=O)N1` [Example 384, (S)-5-((((6-(2-Chloro-3-(3-chloro-2-(2-((((1r,4r)-4-hydroxycyclohexyl)amino)methyl)-8-methoxyimidazo[1,2-a]pyridin-6-yl)pyridin-4-yl)phenyl)-2-methoxypyridin-3-yl)methyl)amino)methyl)pyrrolidin-2-one], with 70 nM. Then `COc1cc(-c2nccc(-c3cccc(-c4ccc(CN[C@H]5C[C@](C)(O)C5)c(OC)n4)c3Cl)c2Cl)ccc1CN[C@H]1C[C@](C)(O)C1` [Example 385, (1r,3r)-3-(((6-(2-Chloro-3-(3-chloro-2-(4-((((1r,3r)-3-hydroxy-3-methylcyclobutyl)amino)methyl)-3-methoxyphenyl)pyridin-4-yl)phenyl)-2-methoxypyridin-3-yl)methyl)amino)-1-methylcyclobutan-1-ol], with 17.8 nM; and `COc1cc(-c2nccc(-c3cccc(-c4ccc(CN5CC6(COC6)C5)c(OC)n4)c3Cl)c2Cl)ccc1CN1CC2(COC2)C1` [Example 387, 6-((6-(3-(2-(4-((2-Oxa-6-azaspiro[3.3]heptan-6-yl)methyl)-3-methoxyphenyl)-3-chloropyridin-4-yl)-2-chlorophenyl)-2-methoxypyridin-3-yl)methyl)-2-oxa-6-azaspiro[3.3]heptane], with 8.22 nM.

Take `COc1cc(-c2nccc(-c3cccc(-c4ccc(CN5CC[C@H](C(=O)O)C5)c(OC)n4)c3Cl)c2Cl)ccc1CNC1CCN(C(C)=O)CC1` [Example 388, (S)-1-((6-(3-(2-(4-(((1-acetylpiperidin-4-yl)amino)methyl)-3-methoxyphenyl)-3-chloropyridin-4-yl)-2-chlorophenyl)-2-methoxypyridin-3-yl)methyl)pyrrolidine-3-carboxylic acid]: a half-maximal response (EC50) required 38.5 nM. In the case of `COc1cc(-c2nccc(-c3cccc(-c4ccc(CNC5CCN(C(C)=O)CC5)c(OC)n4)c3Cl)c2Cl)ccc1CNCCC(=O)O` [Example 390, 3-((4-(4-(3-(5-(((1-acetylpiperidin-4-yl)amino)methyl)-6-methoxypyridin-2-yl)-2-chlorophenyl)-3-chloropyridin-2-yl)-2-methoxybenzyl)amino)propanoic acid] it was 56.6 nM.

Compound `COc1cc(-c2nccc(-c3cccc(-c4ccc(CNC5CCOCC5)c(OC)n4)c3Cl)c2Cl)ccc1CNC1CCN(C(C)=O)CC1` [Example 391, 1-(4-((4-(3-chloro-4-(2-chloro-3-(6-methoxy-5-(((tetrahydro-2H-pyran-4-yl)amino)methyl)pyridin-2-yl)phenyl)pyridin-2-yl)-2-methoxybenzyl)amino)piperidin-1-yl)ethan-1-one] showed an EC50 of 18 nM. Compared with the last compound, the EC50 is about 3.1-fold lower.
